{
  "source": "patent US20230295159A1",
  "about": "“ATX INHIBITOR, AND PREPARATION METHOD THEREFOR AND USE THEREOF” (SUZHOU ARK BIOPHARMACEUTICAL CO., LTD., priority 2020, published 2023)",
  "key": {"ATX enzyme": {"target": "ATX enzyme (Homo sapiens (Human), UniProt Q13822)", "assay": "ATX enzyme activity inhibition assay", "type": "biochemical", "conditions": "16:0-LPC substrate, Amplex UltraRed fluorescence", "description": "The tested compounds were dissolved with dimethyl sulfoxide (DMSO) to prepare 20 mM of stock solutions, the stock solutions were subjected to 4-fold gradient dilutions with DMSO, with the initial concentration of 20 µM and a total of 8 concentration gradients. 20 nL of diluted compound was transferred to a 384-well plate using Echo 550 and 5 µL of ATX enzyme solution formulated with 4 × Tris-HCl reaction buffer to the well, then the 384-well plate was centrifuged at 1000 rpm for 1 min and […] pre-incubated at room temperature for 15 min. Subsequently, 5 µL of 16:0-LPC foumulated with the above 4 × reaction buffer and 10 µL of assay solution containng 2 × Amplex UltraRed reagent, choline oxidase and horseradish peroxidase (HRP) foumulated with the same reaction buffer were added to each well, then the 384-well plate was centrifugated at 1000 rpm for 1 min. The fluorescence signals were read at an excitation wavelength of 530 nm and an emission wavelength of 590 nm by Synergy 2 microplate reader. The inhibition rate of the compound against enzyme reaction was calculated according to the fluorescence intensity ratio, and IC50 of the compound was analysed and calculated by GraphPad Prism 5 software."}, "[1]": {"target": "3A4 subtype of CYP450 enzyme (Homo sapiens (Human), UniProt P08684)", "sequence (P08684 whole entry)": "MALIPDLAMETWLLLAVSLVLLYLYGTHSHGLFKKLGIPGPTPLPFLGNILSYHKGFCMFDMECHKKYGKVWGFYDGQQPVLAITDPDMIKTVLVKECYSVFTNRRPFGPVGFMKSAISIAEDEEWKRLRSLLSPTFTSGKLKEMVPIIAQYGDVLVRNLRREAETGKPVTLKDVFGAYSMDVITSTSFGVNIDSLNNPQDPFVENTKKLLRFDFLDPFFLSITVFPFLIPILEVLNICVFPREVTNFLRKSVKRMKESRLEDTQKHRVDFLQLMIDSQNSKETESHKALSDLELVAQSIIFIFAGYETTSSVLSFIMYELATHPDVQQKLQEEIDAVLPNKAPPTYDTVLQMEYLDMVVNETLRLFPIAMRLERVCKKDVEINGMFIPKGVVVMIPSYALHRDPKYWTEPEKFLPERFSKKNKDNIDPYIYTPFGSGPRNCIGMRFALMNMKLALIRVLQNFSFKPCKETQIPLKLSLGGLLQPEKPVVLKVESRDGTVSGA", "assay": "3A4 subtype of CYP450 enzyme time-dependent inhibition assay (IC50 shift)", "type": "in vitro ADME", "conditions": "both IC50 values above top concentration; testosterone substrate; read-out: IC50 against 3A4 subtype (both groups, pre-incubated with and without NADPH)", "description": "The probe substrate was testosterone at a concentration of 50 µM. The reaction was terminated after incubation for 10 min. The IC50 of the compound against enzyme was calculated by measuring the relative yield of metabolite, and the IC50 shift was calculated from the IC50 results of the groups pre-incubated with and without addition of NADPH."}, "hERG potassium channel": {"target": "hERG potassium channel (Homo sapiens (Human), UniProt Q12809)", "sequence (Q12809 whole entry)": "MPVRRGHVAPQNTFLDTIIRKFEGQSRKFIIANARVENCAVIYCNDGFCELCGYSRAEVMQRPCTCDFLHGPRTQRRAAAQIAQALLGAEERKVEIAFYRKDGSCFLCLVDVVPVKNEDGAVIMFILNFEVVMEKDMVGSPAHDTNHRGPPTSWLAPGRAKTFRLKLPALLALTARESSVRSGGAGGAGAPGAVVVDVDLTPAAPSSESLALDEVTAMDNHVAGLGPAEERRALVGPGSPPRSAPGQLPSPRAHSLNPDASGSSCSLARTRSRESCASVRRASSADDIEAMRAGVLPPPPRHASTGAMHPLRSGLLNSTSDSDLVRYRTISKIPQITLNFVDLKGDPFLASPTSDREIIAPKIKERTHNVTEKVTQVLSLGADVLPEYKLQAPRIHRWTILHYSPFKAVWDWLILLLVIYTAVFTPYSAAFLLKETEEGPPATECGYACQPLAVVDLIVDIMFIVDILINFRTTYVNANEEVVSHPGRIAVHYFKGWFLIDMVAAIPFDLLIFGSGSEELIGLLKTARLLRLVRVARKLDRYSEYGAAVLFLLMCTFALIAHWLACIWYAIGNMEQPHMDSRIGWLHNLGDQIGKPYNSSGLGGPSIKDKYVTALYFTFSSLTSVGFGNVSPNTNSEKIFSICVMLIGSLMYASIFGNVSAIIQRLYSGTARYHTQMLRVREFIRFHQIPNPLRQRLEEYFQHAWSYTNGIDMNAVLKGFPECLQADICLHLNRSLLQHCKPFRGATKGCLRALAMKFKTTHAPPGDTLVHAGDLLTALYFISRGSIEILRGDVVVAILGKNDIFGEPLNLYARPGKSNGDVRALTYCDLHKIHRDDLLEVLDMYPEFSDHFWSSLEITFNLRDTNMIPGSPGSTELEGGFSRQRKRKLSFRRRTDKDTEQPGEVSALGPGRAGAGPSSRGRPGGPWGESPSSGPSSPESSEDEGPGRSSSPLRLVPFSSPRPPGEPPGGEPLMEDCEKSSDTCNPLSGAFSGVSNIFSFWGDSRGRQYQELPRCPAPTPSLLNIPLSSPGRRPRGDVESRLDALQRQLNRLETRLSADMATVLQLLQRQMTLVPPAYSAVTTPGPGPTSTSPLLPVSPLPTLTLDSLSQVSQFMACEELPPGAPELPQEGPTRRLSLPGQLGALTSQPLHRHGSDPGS", "assay": "hERG inhibition assay (manual whole-cell patch clamp)", "type": "cell-based", "conditions": "hERG tail current, stable transfected cell line", "description": "Rapid activation of human delayed rectifier potassium current (IKr) is mainly mediated by hERG ion channel and participates in repolarization of human cardiomyocytes. Blocking this current with drugs will lead to QT interval prolongation syndrome in clinical practice, which will easily induce acute arrhythmia and even sudden death.\nExperimental method: a whole-cell patch clamp technique was used to record hERG current. The cell suspension was added to a small petri dish and placed on an inverted microscope stage. After adherence, the cells were perfused with extracellular fluid at a recommended flow rate of 1-2 mL/min. The glass microelectrode was drawn by a microelectrode drawing instrument in two steps, and the resistance thereof after filling the electrode interior liquid was 2-5 MΩ. After the whole-cell recording mode was set up, the clamping potential was maintained at -80 mV. The depolarization voltage was applied to +60 mV for 850 ms, and then repolarized to -50 mV for 1275 ms to induce hERG tail current. Such a set of pulse programming was repeated every 15 seconds throughout the experiment. After the current was stable, the drug was administered by extracellular continuous perfusion from low concentration to high concentration. Starting from low concentration, perfusion continued until the drug effect was stable, then perfusion at the next concentration was performed. In this experiment, the blocking effect on hERG tail current was tested for the test objects at different concentrations and the positive control (N ≥ 2). Then, stimulus generation and signal acquisition were carried out by PatchMaster software; and a signal was amplified with a patch clamp amplifier. FitMaster, EXCEL, Graphpad Prism, SPSS 21.0, etc. were used for further data analysis and curve fitting. In data processing, when determining the blocking effect on hERG, the peak and baseline of tail current were calibrated. The inhibition rate (IR) of tail current was used to express the effect of the compounds at different concentrations.\nIR = 100% × (peak of tail current before administration - peak of tail current after administration)/peak of tail current before administration.\nIC50 was obtained by fitting the Hill equation (if applicable), if the maximum inhibition rate of the test object at all concentrations was less than 50%, then IC50 was not calculated. [00500]"}, "[2]": {"assay": "Rat pharmacokinetic study", "type": "in vivo, SD rat", "conditions": "for half-life: read-out: t½ (converted)", "description": "SD rat pharmacokinetic study was performed on several compounds in Examples of the present disclosure through a single intravenous injection (IV, at a dose of 2 mg/kg) and a single oral administration (PO, at a dose of 10 mg/kg), and blood samples were taken before administration and 5 min, 15 min, 30 min, 1 h, 2 h, 4 h, 8 h, 12 h and 24 h after administration, respectively, to determine the plasma concentration of the compound for assay. The pharmacokinetic data of control compound and the compounds in Examples 17, 26, 28 and 29 of the present disclosure in rat plasma are shown in Tables 4-8."}},
  "note": "Where two headings read alike, the source gives them in different places.",
  "data": [
    {"smiles": "CCN(c1nc(-c2ccc(F)cc2)c(C#N)s1)c1c2nc(-c3cnc(N4CCOCC4)nc3)ccc2nn1CC", "note": "[Example 29, 2-(ethyl(2-ethyl-5-(2-morpholinopyrimidin-5-yl)-2H-pyrazolo[4,3-b]pyridin-3-yl)amino)-4-(4-fluorophenyl)thiazole-5-carbonitrile]", "values": [
      {"measurement": "IC50", "setting": "ATX enzyme", "value": 0.023, "unit": "µM"},
      {"measurement": "IC50", "setting": "[1]", "value": "> 100", "unit": "µM"},
      {"measurement": "IC50", "setting": "hERG potassium channel", "value": "> 30", "unit": "µM"},
      {"measurement": "Cl_F_pred", "setting": "[2]; IV 2 mg/kg", "value": 4.83, "unit": "mL/min/kg"},
      {"measurement": "Cl_F_pred", "setting": "[2]; PO 10 mg/kg", "value": 18.3, "unit": "mL/min/kg"},
      {"measurement": "F", "setting": "[2]; PO 10 mg/kg vs IV 2 mg/kg", "value": 11.2, "unit": "%"},
      {"measurement": "AUC(0-inf)", "setting": "[2]; SD, plasma, IV 2 mg/kg", "value": 7220, "unit": "ng·h/mL"},
      {"measurement": "AUC(0-t)", "setting": "[2]; SD, plasma, IV 2 mg/kg", "value": 6840, "unit": "ng·h/mL"},
      {"measurement": "Cmax", "setting": "[2]; SD, plasma, IV 2 mg/kg", "value": 3480, "unit": "ng/mL"},
      {"measurement": "half-life", "setting": "[2]; SD, plasma, IV 2 mg/kg", "value": 8.2, "unit": "h"},
      {"measurement": "AUC(0-inf)", "setting": "[2]; SD, plasma, PO 10 mg/kg", "value": 9150, "unit": "ng·h/mL"},
      {"measurement": "AUC(0-t)", "setting": "[2]; SD, plasma, PO 10 mg/kg", "value": 7780, "unit": "ng·h/mL"},
      {"measurement": "Cmax", "setting": "[2]; SD, plasma, PO 10 mg/kg", "value": 847, "unit": "ng/mL"},
      {"measurement": "Tmax", "setting": "[2]; SD, plasma, PO 10 mg/kg", "value": 3.3, "unit": "h"},
      {"measurement": "half-life", "setting": "[2]; SD, plasma, PO 10 mg/kg", "value": 9.2, "unit": "h"}
    ]}
  ]
}
